Data set [1] in a line: Fluorescence emission before/after photolysis at pH=8 (spectroscopic studies of photo reactions). It is filed as physicochemical. The method, then:
FIG. 16. Spectroscopic studies of photo reactions for different FLASH-off probes. A. Schematic depiction of the photo reactions for FLASH-off 500-650 (1a-d respectively) with the absorbance and emission spectra scans of the photo reactions (5 μM) in (citric acid+Na2HPO4 buffer, pH=8) before (red) and after (dark) irradiation 1 min 365 nm lamp. All spectra were taken in triplicates. B. Pictures of solutions of panel A in white light (top and bottom) and under UV light (middle).
Photolysis experiments. Solutions for compounds 1a-d were made in the corresponding buffers (pH=3-8) at a concentration of 1-100 μM. The samples were irradiated using different UV light sources (i) LED light source (405 nm, 1.14 mW cm^−2, LuxeonStar SZ-05-U3); UV lamp (˜365 nm, 0.32 mW cm^−2; UVL-28 EL Series, UVP) at different power and time settings (1 s-5 min). Fluorescence intensity was measured at the corresponding λmax of emission before irradiation (t=0 min) and after irradiation (t=1, 2, 3, and 5 min). The data were plotted as the integrated fluorescence intensity normalized to the initial intensity (I=1).

Data set [2] concerns human FFPE tonsil sections. Nature of the data set: Multiplexed tissue imaging and quenching in FFPE tonsil sections. The method, then:
FIG. 23. Quenching can be spatially controlled. A. Focused local quenching experiment (top) in tonsil tissue sections using an epifluorescent microscope. Local quenching was performed using a 40× magnification (DAPI, 8 s) and read-out was performed with 10× magnification (647 nm channel). (<90%) of fixed human tonsil stained with CD45-FLASH-off 650. Whole sample quenching (bottom) was achieved by soaking the sample with buffer at pH=8.4 and using an external 405 nm lamp placed at about 1 cm distance for 2 min. Scale bar=[…] (top), […] (bottom).
Human tissue sections. De-identified formaldehyde-fixed paraffin-embedded tissue sections were commercially obtained from Biomax (HuFOT161, Biomax). Tissue sections were de-paraffinized, rehydrated, and antigen-retrieved in pH 9antigen retrieval buffer. Then sections were blocked with Intercept Blocking buffer (LI-COR) for 30 min before antibody staining for FLASH-off FFPE. Tissues were incubated with FLASH-off antibody conjugates for 30 minutes followed by rinses. […]
We prepared four antibody-FLASH-off conjugates that recognize human immune markers including CD45, CD11c, CD11b, and Pan-CK. […] Regions of high immune cell density were localized and the location of the selected immune markers was assessed within the distinctive morphological structures of tonsils tissue. […]

Data on 2 compounds can be found in patent US20250283800A1, “PROBES FOR FLUORESCENCE IMAGING” (The General Hospital Corporation, priority 2022, published 2025).

Turning to `CNC(=O)c1ccccc1Cc1c2ccc(=N)c(S(=O)(=O)O)c-2oc2c(S(=O)(=O)O)c(N)ccc12` [Compound 7a], in data set [1], the “spirocyclization with increasing pH” value is on record as “did not proceed with increasing pH”. Take `N=C(N)c1ccc(-c2cc3ccc(C(=N)N)cc3[nH]2)cc1` [DAPI]: the “signal intensity of non-photoquenchable stains after UV light irradiation” value in data set [2] is given as “without causing an apparent decrease in signal intensity”.
